In general, IC50 refers to the concentration needed to halve the response being measured.

Among the data in US8846636B2, “Nucleoside analogues with quaternary carbon stereogenic centers and methods of use” (LCB Pharma Inc., priority 2008, dated 2014) are IC50 values, retold here.

Assay type in all cases: cell-based
The test system of one experiment is HL-60. Nature of the experiment: MTT cell proliferation assay, HL-60. As to conditions: HL-60 cell line (acute promyelocytic leukemia). The protocol:
(§1) The antiviral and antitumor activities of the compounds of the invention were evaluated by a cellular proliferation assay. The MTT [3-(4,5-dimethylthiazol-2-yl)-2,5-diphenyltetrazolium bromide] assay, first described by Mosmann (Mosmann T., “Rapid colorimetric assay for cellular growth and survival: application to proliferation and cytotoxicity assays,” J. Immunol. Methods 1983 Dec. 16; 65(1-2):55-63, and incorporated by reference in its entirety) is based on the ability of a mitochondrial dehydrogenase enzyme from viable cells to cleave the tetrazolium rings of the pale yellow MTT. The cleavage reaction form a dark blue formazan crystals which is largely impermeable to cell membranes and accumulation within healthy cells. Solubilisation of the cells by the addition of a detergent liberates and solubilizes the crystals. The number of surviving cells is directly proportional to the level of the formazan product created. The color can then be quantified using a simple colorimetric assay. The results can be read on a multiwell scanning spectrophotometer (ELISA reader).
(§2) In Tables 1 and 2, IC50 values are presented for various cell lines in micromolar units (μm), “Gemci” is Gemcitabine, and “5-FU” is 5-fluorouracil.
Background: Formazan colour is commonly taken as a measure of viable cells.

The next experiment deals with NCI H2052. Nature of the experiment: MTT cell proliferation assay, NCI H2052. Conditions: NCI H2052 cell line (tumor stage 4 derived from pleural effusion). The method, then:
as §1, §2

A further experiment deals with Colo 829. Nature of the experiment: MTT cell proliferation assay, Colo 829. Conditions: Colo 829 cell line (skin). The method, then:
as §1, §2

The test system of a further experiment is HCT 116. The experiment in a line: MTT cell proliferation assay, HCT 116. As to conditions: HCT 116 cell line (colon). The protocol:
as §1, §2

In another experiment the test system is PFSK-1. The experiment in a line: MTT cell proliferation assay, PFSK-1. Conditions: PFSK-1 cell line (brain). The protocol:
as §1, §2

The test system of another experiment is MCF7. Nature of the experiment: MTT cell proliferation assay, MCF7. As to conditions: MCF7 cell line (mammary gland; breast). The protocol:
as §1, §2

A further experiment has as its system BxPC-3. The experiment in a line: MTT cell proliferation assay, BxPC-3. As to conditions: BxPC-3 cell line (pancreas). The protocol: as §1, §2
In the next experiment the test system is NCI H1395. The experiment in a line: MTT cell proliferation assay, NCI H1395. The method, then: as §1, §2
The test system of a further experiment is 1A6. Nature of the experiment: MTT cell proliferation assay, 1A6. As to conditions: 1A6 cell line (urinary bladder). The method, then: as §1, §2
The next experiment deals with ZR-75-1. The experiment in a line: MTT cell proliferation assay, ZR-75-1. Conditions: ZR-75-1 cell line (mammary gland; breast). The method, then:
as §1, §2

The subject of a further experiment is DLD-1. The experiment in a line: MTT cell proliferation assay, DLD-1. Conditions: DLD-1 cell line (colon). The method, then: as §1, §2
The test system of another experiment is HCC1143. Nature of the experiment: MTT cell proliferation assay, HCC1143. Conditions: HCC1143 cell line (mammary gland; breast). The protocol: as §1, §2
Another experiment concerns 786-O. Nature of the experiment: MTT cell proliferation assay, 786-O. Conditions: 786-O cell line (kidney). The protocol:
as §1, §2

In the next experiment the test system is MOLT-4. The experiment in a line: MTT cell proliferation assay, MOLT-4. The method, then:
as §1, §2

The subject of the next experiment is OVCAR3. The experiment in a line: MTT cell proliferation assay, OVCAR3. Conditions: OVCAR3 cell line (ovary). The method, then:
as §1, §2

The subject of the next experiment is 22Rv1. The experiment in a line: MTT cell proliferation assay, 22Rv1. As to conditions: 22Rv1 cell line (prostate). The protocol:
as §1, §2

[1] abbreviates: Homo sapiens, NCI-H1395, NCI H1395 cell line (lung).
The mark [2] stands for this setting: Homo sapiens, MOLT-4, MOLT-4 cell line (acute lymphoblastic leukemia).

As to `C[C@]1(C(=O)NN)[C@@H](CO)O[C@@H](n2cc(F)c(N)nc2=O)[C@@H]1O` [LCB-1085, (2S,3R,4R,5R)-5-(4-amino-5-fluoro-2-oxopyrimidin-1(2H)-yl)-4-hydroxy-2-(hydroxymethyl)-3-methyltetrahydrofuran-3-carbohydrazide], the IC50 in the experiment on HL-60 (Homo sapiens), in the experiment on NCI H2052 (Homo sapiens), in the experiment with Colo 829 (Homo sapiens), in the experiment on HCT 116 (Homo sapiens), in the experiment on PFSK-1 (Homo sapiens) and in the experiment with MCF7 (Homo sapiens) was more than 100 µM in each case. Besides, the IC50 with BxPC-3 (Homo sapiens), with NCI H1395 (setting [1]), in the experiment on 1A6, in the experiment on ZR-75-1 (Homo sapiens), in the experiment on DLD-1 (Homo sapiens) and with HCC1143 (Homo sapiens) was more than 100 µM throughout. The IC50 in the experiment with 786-O (Homo sapiens, 786-0) is more than 100 µM; with MOLT-4 (setting [2]), 80 µM; with OVCAR3 (Homo sapiens, OVCAR-3) it was more than 100 µM; in the experiment with 22Rv1 (Homo sapiens), more than 100 µM.

Take “((2S,3S,4R,5R)-5-(2-amino-6-chloro-9H-purin-9-yl)-4-hydroxy-3-methyltetrahydrofuran-2,3-diyl)dimethanol (A), ((2S,3S,4R,5R)-5-(6-amino-2-chloro-9H-purin-9-yl)-4-hydroxy-3-methyltetrahydrofuran-2,3-diyl)dimethanol (B) [LCB-1094]”: the IC50 with HL-60, in the experiment on NCI H2052, in the experiment with Colo 829, in the experiment with HCT 116, in the experiment on PFSK-1 and in the experiment with MCF7 was more than 500 µM in each case. Besides, the concentration for half-maximal inhibition (IC50) in the experiment on BxPC-3, with NCI H1395 (NCI H1395 cell line (lung)), with 1A6, in the experiment on ZR-75-1, in the experiment on DLD-1 and in the experiment with HCC1143 was more than 500 µM each time. Moreover, the IC50 with 786-O, in the experiment with MOLT-4 (MOLT-4 cell line (acute lymphoblastic leukemia)), in the experiment with OVCAR3 and with 22Rv1 was more than 500 µM in each case.

As for `Nc1ccn([C@@H]2O[C@H](CO)[C@@H](O)C2(F)F)c(=O)n1` [Gemci., Gemcitabine, reference compound], the IC50 with HL-60 (Homo sapiens) is less than 0.5 µM; with NCI H2052 (Homo sapiens), more than 500 µM; with Colo 829 (Homo sapiens), less than 0.5 µM; with HCT 116 (Homo sapiens), less than 0.5 µM; with PFSK-1 (Homo sapiens), more than 500 µM; in the experiment with MCF7 (Homo sapiens), more than 500 µM. The IC50 with BxPC-3 (Homo sapiens) was less than 0.5 µM; with NCI H1395 (setting [1]), less than 0.5 µM; with 1A6 it was 5 µM; in the experiment on ZR-75-1 (Homo sapiens) it was more than 500 µM; in the experiment on DLD-1 (Homo sapiens), more than 500 µM; in the experiment with HCC1143 (Homo sapiens) it was 400 µM. Further, the IC50 was more than 500 µM in the experiment with 786-O (Homo sapiens, 786-0); less than 0.5 µM with MOLT-4 (setting [2]); 5 µM in the experiment on OVCAR3 (Homo sapiens, OVCAR-3); more than 500 µM in the experiment with 22Rv1 (Homo sapiens).

For the compound `CC1(CO)C(O)C(n2cnc3c(N)nc(Cl)nc32)O[C@@H]1CO` (stereo in doubt) [LCB-1091, ((2S,3R,4R,5R)-5-(6-amino-2-chloro-9H-purin-9-yl)-4-hydroxy-3-methyltetrahydrofuran-2,3-diyl)dimethanol], the concentration for half-maximal inhibition (IC50) with HL-60 (Homo sapiens), with NCI H2052 (Homo sapiens), in the experiment with Colo 829 (Homo sapiens), in the experiment with HCT 116 (Homo sapiens), with PFSK-1 (Homo sapiens) and in the experiment with MCF7 (Homo sapiens) was more than 500 µM in each case. The IC50 with BxPC-3 (Homo sapiens), in the experiment on NCI H1395 (setting [1]), in the experiment on 1A6, with ZR-75-1 (Homo sapiens), in the experiment with DLD-1 (Homo sapiens) and in the experiment on HCC1143 (Homo sapiens) was more than 500 µM throughout. Besides, the IC50 in the experiment on 786-O (Homo sapiens, 786-0) was more than 500 µM; with MOLT-4 (setting [2]), more than 500 µM; with OVCAR3 (Homo sapiens, OVCAR-3) it was more than 500 µM; with 22Rv1 (Homo sapiens), more than 500 µM.
